Source: patent publication US20250163057A1, “DCN-1 MODULATING COMPOUNDS AND METHODS OF USE THEREOF” (Cellarity, Inc., priority 2023, published 2025)

Experiments:
Format in all cases: binding
[1] = target: DCN1 protein (Homo sapiens (Human), UniProt Q96GG9); assay: Intact Protein MS Analysis with the RapidFire-TOF System (covalent adduct formation); conditions: MS Emax; 400 nM DCN1, 3 hours at room temperature
Outline: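 Tag-cleaved human DCN1 (400 nM) expressed in E. coli, in 25 mM Tris-HCl, 200 mM NaCl, 1 mM DTT, was incubated with 11 compound concentrations for 3 h at room temperature and quenched with 0.2% formic acid. Intact-protein Q-TOF MS with deconvolution detected the compound adduct mass.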

[2] = target: DCN1 (DCUND1) protein PONY domain (Homo sapiens (Human), UniProt Q96GG9); assay: Off-rate measurement of reversible covalent molecules (jump dilution TR-FRET with Cy5 probe); conditions: for Category: binding mode category from off-rate assay; for residence time: inverse of rate constant K; for residence time / half-life: jump dilution TR-FRET; for koff: jump dilution, Cy5 covalent probe 150 nM, TR-FRET; for half-life: ln(2)/K
DCN1 (DCUND1) protein PONY domain, sequence (Q96GG9 60-248): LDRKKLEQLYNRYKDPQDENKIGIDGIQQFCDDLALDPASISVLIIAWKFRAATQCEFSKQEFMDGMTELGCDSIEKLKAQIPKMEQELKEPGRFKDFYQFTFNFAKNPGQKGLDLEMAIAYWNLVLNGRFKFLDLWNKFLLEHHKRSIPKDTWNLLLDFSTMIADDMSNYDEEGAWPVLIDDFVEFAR

[3] = target: DCN2 (DCUND2) protein PONY domain (Homo sapiens (Human), UniProt Q6PH85); assay: Measurement of Kinact/KI in the DCN2 TR-FRET Assay; conditions: for kinact/KI: read-out: Kinact/KI (converted); for Ki / kinact: time-dependent IC50 over 24 hrs; for kinact: read-out: Kinact (converted)
DCN2 (DCUND2) protein PONY domain, sequence (Q6PH85 60-248): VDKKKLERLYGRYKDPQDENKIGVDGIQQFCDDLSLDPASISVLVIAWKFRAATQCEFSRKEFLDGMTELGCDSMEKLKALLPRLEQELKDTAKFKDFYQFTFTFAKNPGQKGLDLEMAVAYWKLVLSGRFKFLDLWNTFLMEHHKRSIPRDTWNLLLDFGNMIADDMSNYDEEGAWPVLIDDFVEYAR
Method: A TR-FRET Assay was performed to evaluate the ability of the compounds to bind DCN-2.
The time resolved—Forster's resonance energy transfer (TR-FRET) assay was designed following the protocol established in (Scott et al., Nat Chem Biol. 2017 August; 13(8): 850-857). A recombinant form of the DCN2 (DCUND2) protein PONY domain was produced using an E. coli expression system at Viva Biotech China. The DCN2 protein was biotinylated (EZ sulfo-NHS-LC-biotin; Thermofisher) for labeling with 2.5 nM streptavidin terbium (Tb) cryptate in the reaction. The probe was changed to a non-covalent DCN1 inhibitor labeled with carboxyfluorescein (FAM; Zhou et al, Nat Commun. 2017; 8: 1150). Buffer conditions were modified to enhance protein stability by replacing TritonX with 0.05% Tween20 and increasing NaCl to 200 mM. The compounds were screened against 0.31 nM DCN1 and 40 nM FAM-labeled probe in a 40 ul reaction volume. The TR-FRET ratio between Tb-DCN1 and the FAM-labeled probe was measured in a 384-well opti-plate (Perkin Elmer) using a plate reader (BMG) at after treatment with compound (final DMSO concentration of 0.1%). The ratio was normalized to the high (DCN1 and FAM-probe) and low (DCN1 and no probe) controls for a readout of % activity (=100*(x−low)/(high−low)).
The Kinact and KI measurements were taken to allow for continuous reads over 24 hrs. Plates were read every 5 min up to 1 hr, every 15 min up to 5 hr, and every hour up to […]. Kinact and KI were calculated based on the following equations (Krippendorff B F, et al. Mechanism-based inhibition: deriving K(I) and k(inact) directly from time-dependent IC(50) values. J BiomolScreen. 2009; Mons E et al. A Comprehensive Guide for Assessing Covalent Inhibition in Enzymatic Assays Illustrated with Kinetic Simulations. CurrProtoc. 2022) where the KM of the probe against DCN2 is 21.62 nM. The Kinact and KI values could be estimated from the tight curves of the IC50 values over time.

DCN1 protein, sequence (Q96GG9 whole entry): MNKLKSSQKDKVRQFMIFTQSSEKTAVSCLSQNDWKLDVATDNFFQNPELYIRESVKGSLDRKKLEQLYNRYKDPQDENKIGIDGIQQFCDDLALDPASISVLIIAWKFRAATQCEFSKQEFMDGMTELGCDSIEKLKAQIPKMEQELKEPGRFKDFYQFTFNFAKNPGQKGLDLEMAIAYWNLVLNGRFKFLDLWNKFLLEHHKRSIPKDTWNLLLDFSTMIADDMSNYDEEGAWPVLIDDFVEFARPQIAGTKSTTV

## CCN1C(=O)[C@@H](NC(=O)c2cccc(C(F)(F)F)c2)[C@@H](c2ccc(F)cc2)c2c(C(=O)N3CCC[C@H]3C#N)nn(-c3ccccc3)c21 (mixture of isomers) [Compound I-34]
[1]
  % Adduct Formation: +++ (MS Emax % adduct formation greater than 80.0 and less than or equal to 100.0)

## CCN1C(=O)[C@@H](NC(=O)c2cccc(C(F)(F)F)c2)[C@@H](C2CC2)c2c(C(=O)N3CCS(=O)(=O)C[C@H]3C#N)nn(C3CCOCC3)c21 (mixture of isomers) [Compound I-379]
[1]
  % Adduct Formation: +++ (MS Emax % adduct formation greater than 80.0 and less than or equal to 100.0)
[2]
  Category: reversible covalent
  residence time: 78.9 min
  koff: 0.000211 s⁻¹
  half-life: 0.9115 h

## CCN1C(=O)[C@@H](NC(=O)c2cccc(C(F)(F)F)c2)[C@@H](c2ccc(F)cc2)c2c(CNC(=O)/C=C/C(=O)OC)nn(-c3ccccc3)c21 (racemic) [Compound I-3]
[1]
  % Adduct Formation: +++ (MS Emax % adduct formation greater than 80.0 and less than or equal to 100.0)

## CCN1C(=O)[C@@H](NC(=O)c2cccc(C(F)(F)F)c2)[C@@H](c2ccc(F)cc2)c2c(NC(=O)C3=CCC3)nn(-c3ccccc3)c21 (racemic) [Compound I-152]
[1]
  % Adduct Formation: + (MS Emax % adduct formation greater than or equal to 0.0 and less than or equal to 30.0)

## CCN1C(=O)[C@@H](NC(=O)c2cccc(C(F)(F)F)c2)[C@@H](c2ccc(F)cc2)c2c([C@@H](C)NC#N)nn(-c3ccccc3)c21 [Compound I-73, N-((4S,5S)-3-((R)-1-cyanamidoethyl)-7-ethyl-4-(4-fluorophenyl)-6-oxo-1-phenyl-4,5,6,7-tetrahydro-1H-pyrazolo[3,4-b]pyridin-5-yl)-3-(trifluoromethyl)benzamide]
[1]
  % Adduct Formation: +++ (MS Emax % adduct formation greater than 80.0 and less than or equal to 100.0)
[2]
  Category: irreversible covalent
[3]
  kinact/KI: 83300 M⁻¹ s⁻¹
  Ki: 46.4 nM
  kinact: 0.00384 s⁻¹

## CCN1C(=O)[C@@H](NC(=O)c2cccc(C(F)(F)F)c2)[C@@H](c2ccc(F)cc2)c2c(CN(C)C#N)nn(-c3ccccc3)c21 [Compound I-92]
[1]
  % Adduct Formation: +++ (MS Emax % adduct formation greater than 80.0 and less than or equal to 100.0)

## CCN1C(=O)[C@@H](NC(=O)c2cccc(C(F)(F)F)c2)[C@@H](c2ccc(F)cc2)c2c(C(=O)NC3(C#N)CC3)nn(-c3ccccc3)c21 [Compound I-112]
[1]
  % Adduct Formation: +++ (MS Emax % adduct formation greater than 80.0 and less than or equal to 100.0)

## CCN1C(=O)[C@@H](NC(=O)c2cccc(C(F)(F)F)c2)[C@@H](c2ccc(F)cc2)c2c(CNC#N)nn(-c3ccccc3)c21 [Compound I-140, N-[(4S, 5S)-3-[(cyanoamino)methyl]-7-ethyl-4-(4-fluorophenyl)-6-oxo-1-phenyl-4,5-dihydropyrazolo[3,4-b]pyridine-5-yl]-3-(trifluoromethyl) benzamide]
[1]
  % Adduct Formation: +++ (MS Emax % adduct formation greater than 80.0 and less than or equal to 100.0)

## CCN1C(=O)[C@@H](NC(=O)c2cccc(C(F)(F)F)c2)[C@@H](C2CC2)c2c(C(=O)N3[C@H](C#N)C[C@H]4C[C@H]43)nn(C3CCOCC3)c21 [Compound I-256, N-((4S,5S)-3-((1R,3S,5R)-3-cyano-2-azabicyclo[3.1.0]hexane-2-carbonyl)-4-cyclopropyl-7-ethyl-6-oxo-1-(tetrahydro-2H-pyran-4-yl)-4,5,6,7-tetrahydro-1H-pyrazolo[3,4-b]pyridin-5-yl)-3-(trifluoromethyl)benzamide]
[1]
  % Adduct Formation: +++ (MS Emax % adduct formation greater than 80.0 and less than or equal to 100.0)
[2]
  Category: slow reversible
  residence time: 219 min
  koff: 7.96e-05 s⁻¹
  half-life: 2.535 h
[3]
  kinact/KI: 78300 M⁻¹ s⁻¹
  Ki: 99.4 nM
  kinact: 0.00783 s⁻¹

## CCN1C(=O)[C@@H](NC(=O)c2cccc(C(F)(F)F)c2)[C@@H](c2ccc(F)cc2)c2c(C(=O)N3[C@H](C#N)C[C@H]4C[C@H]43)nn(-c3ccccc3)c21 [Compound I-277]
[1]
  % Adduct Formation: +++ (MS Emax % adduct formation greater than 80.0 and less than or equal to 100.0)

## CCN1C(=O)[C@@H](NC(=O)c2cccc(C(F)(F)F)c2)[C@@H](c2ccc(F)cc2)c2c(C(=O)N3CCC[C@H]3C#N)nn(-c3ccccc3)c21 [Compound I-278]
[1]
  % Adduct Formation: +++ (MS Emax % adduct formation greater than 80.0 and less than or equal to 100.0)

## CCN1C(=O)[C@@H](NC(=O)c2cccc(C(F)(F)F)c2)[C@@H](c2ccc(F)cc2)c2c(C(=O)N3CCNCC3C#N)nn(C3CCOCC3)c21 (some centres unmarked) [Compound I-334]
[1]
  % Adduct Formation: +++ (MS Emax % adduct formation greater than 80.0 and less than or equal to 100.0)

## CCN1C(=O)[C@@H](NC(=O)c2cccc(C(F)(F)F)c2)[C@@H](c2ccc(F)cc2)c2c(C(=O)N3CCC[C@H]3C#N)nn(C3CCOCC3)c21 [Compound I-350]
[1]
  % Adduct Formation: ++ (MS Emax % adduct formation greater than 30.0 and less than or equal to 80.0)
[2]
  Category: slow reversible
  residence time: 699 min
  koff: 2.64e-05 s⁻¹
  half-life: 8.07 h
[3]
  kinact/KI: 45000 M⁻¹ s⁻¹
  Ki: 92.9 nM
  kinact: 0.00417 s⁻¹

## CCN1C(=O)[C@@H](NC(=O)c2cccc(C(F)(F)F)c2)[C@@H](c2ccc(F)cc2)c2c(C(=O)N3CCNC[C@H]3C#N)nn(C3CCOCC3)c21 [Compound I-363, N-((4S,5S)-3-((S)-2-cyanopiperazine-1-carbonyl)-7-ethyl-4-(4-fluorophenyl)-6-oxo-1-(tetrahydro-2H-pyran-4-yl)-4,5,6,7-tetrahydro-1H-pyrazolo[3,4-b]pyridin-5-yl)-3-(trifluoromethyl)benzamide]
[1]
  % Adduct Formation: +++ (MS Emax % adduct formation greater than 80.0 and less than or equal to 100.0)
[2]
  Category: slow reversible
[3]
  kinact/KI: 263000 M⁻¹ s⁻¹
  Ki: 17.4 nM
  kinact: 0.00459 s⁻¹

## CCN1C(=O)[C@@H](NC(=O)c2cccc(C(F)(F)F)c2)[C@@H](c2ccc(F)cc2)c2c(C(=O)N(C)[C@@H](C#N)CCN(C)C)nn(C3CCOCC3)c21 [Compound I-369]
[1]
  % Adduct Formation: +++ (MS Emax % adduct formation greater than 80.0 and less than or equal to 100.0)
[2]
  Category: fast reversible
  residence time: 39.4 min
  koff: 0.000425 s⁻¹
  half-life: 0.455 h
[3]
  kinact/KI: 11700 M⁻¹ s⁻¹
  Ki: 2 nM
  kinact: 2.17e-05 s⁻¹

## CCN1C(=O)[C@@H](NC(=O)c2cccc(C(F)(F)F)c2)[C@@H](C2CC2)c2c(C(=O)N3C[C@H](F)C[C@H]3C#N)nn(C3CCOCC3)c21 [Compound I-372]
[1]
  % Adduct Formation: +++ (MS Emax % adduct formation greater than 80.0 and less than or equal to 100.0)
[3]
  kinact/KI: 13300 M⁻¹ s⁻¹
  Ki: 229 nM
  kinact: 0.00313 s⁻¹

## CCN1C(=O)[C@@H](NC(=O)c2cccc(C(F)(F)F)c2)[C@@H](C2CC2)c2c(C(=O)N3C[C@H](OC)C[C@H]3C#N)nn(C3CCOCC3)c21 [Compound I-377]
[1]
  % Adduct Formation: +++ (MS Emax % adduct formation greater than 80.0 and less than or equal to 100.0)
[3]
  kinact/KI: 21700 M⁻¹ s⁻¹
  Ki: 161 nM
  kinact: 0.00354 s⁻¹

## CCc1cccc(C(=O)N[C@@H]2C(=O)N(CC)c3c(c(C(=O)N4[C@H](C#N)C[C@H]5C[C@H]54)nn3C3CCOCC3)[C@@H]2C2CC2)c1 [Compound I-552, N-((4S,5S)-3-((1R,3S,5R)-3-cyano-2-azabicyclo[3.1.0]hexane-2-carbonyl)-4-cyclopropyl-7-ethyl-6-oxo-1-(tetrahydro-2H-pyran-4-yl)-4,5,6,7-tetrahydro-1H-pyrazolo[3,4-b]pyridin-5-yl)-3-ethylbenzamide]
[2]
  Category: reversible covalent
  residence time: 224 min
  koff: 7.5e-05 s⁻¹
  half-life: 2.593 h
[3]
  kinact/KI: 333000 M⁻¹ s⁻¹
  Ki: 17 nM
  kinact: 0.00566 s⁻¹

## CCN1C(=O)[C@@H](NC(=O)c2cccc(C(F)(F)F)c2)[C@@H](C2CC2)c2c(C(=O)N3CCNC[C@H]3C#N)nn(C3CCOCC3)c21 [Compound I-582]
[2]
  Category: irreversible covalent

## CCN1C(=O)[C@@H](NC(=O)c2cccc(C(F)(F)F)c2)[C@@H](C2CC2)c2c(C(=O)N3CS(=O)(=O)C[C@H]3C#N)nn(C3CCOCC3)c21 [Compound I-617]
[2]
  Category: fast reversible
  residence time: 66.3 min
  koff: 0.000251 s⁻¹
  half-life: 0.7658 h
